Patent publication US7459481B2, “Stimulation of CPT-1 as a means to reduce weight” (The Johns Hopkins University School of Medicine Licensing …, priority 2002, dated 2008)
“And” between values parts separate entries of the source, which are not always exact repeats. Identical values can stand only once.

How the values were obtained:
MCF-7 cells [1] = test: Fatty acid oxidation ([1-14C]palmitate to 14CO2) in MCF-7 cells; format: cell-based, human
Description: Human breast cancer cell line MCF-7 was obtained from the American Type Culture Collection. 1×10^6 MCF-7 cells were plated in T-25 flasks in triplicate and incubated overnight at 37° C. Drugs were then added as indicated diluted from 5 mg/ml stock in DMSO. After 2 hours, medium with drugs was removed and cells were preincubated for 30 min. with 1.5 ml of the following buffer: 114 mM NaCl, 4.7 mM KCl, 1.2 mM KH2PO4, 1.2 mM MgSO4, glucose 11 mM. After preincubation, 200 μl of assay buffer was added containing: 114 mM NaCl, 4.7 mM KCl, 1.2 mM KH2PO4, 1.2 mM MgSO4, glucose 11 mM, 2.5 mM palmitate (containing with 10 μCi of [1-^14C]palmitate) bound to albumin, 0.8 mM L-carnitine, and cells were incubated at 37° C. for 2 h. Following the incubation, 400 μl of benzethonium hydrochloride was added to the center well to collect released ^14CO2. Immediately, the reaction was stopped by adding 500 μl of 7% perchloric acid to the cells. The flasks with wells were then incubated for 2 h at 37° C. after which the benzothonium hydrochloride was removed and counted for ^14C. Blanks were prepared by adding 500 μl of 7% perchloric acid to the cells prior to the incubation with the assay buffer for 2 h.
(§1) FAS activity was measured by monitoring the malonyl-CoA dependent oxidation of NADPH spectrophotometrically at OD340 in 96-well plates, as described in International Patent Publication WO 2004/005277. The IC50 for the compounds against FAS was determined by plotting the change in OD340 against time for each inhibitor concentration tested and determining the rate of change by linear regression. The concentration of a particular compound yielding 50% inhibition of the rate for FAS in the absence of the compound is the IC50. Stimulation of CPT-1 activity was measured as described in Example 2, except the cells were preincubated with the compound for 2 hours at the concentrations indicated in the table. Stimulation of Fatty acid oxidation was determined as described in Example 1 for cells preincubated with the compounds at the concentrations indicated in the table.

CPT-1 = target: T1, CPT-1 (Homo sapiens, UniProt P50416); test: CPT-1 activity assay in MCF-7 cells; format: cell-based; conditions: for CPT-1 Stimulation (% Control): cells preincubated 2 hours; for CPT-1 activity, % of control: FIG. 4
T1 construct: endogenous in cells; host or cells: MCF-7 human breast cancer cells
T1 sequence (P50416 1-773): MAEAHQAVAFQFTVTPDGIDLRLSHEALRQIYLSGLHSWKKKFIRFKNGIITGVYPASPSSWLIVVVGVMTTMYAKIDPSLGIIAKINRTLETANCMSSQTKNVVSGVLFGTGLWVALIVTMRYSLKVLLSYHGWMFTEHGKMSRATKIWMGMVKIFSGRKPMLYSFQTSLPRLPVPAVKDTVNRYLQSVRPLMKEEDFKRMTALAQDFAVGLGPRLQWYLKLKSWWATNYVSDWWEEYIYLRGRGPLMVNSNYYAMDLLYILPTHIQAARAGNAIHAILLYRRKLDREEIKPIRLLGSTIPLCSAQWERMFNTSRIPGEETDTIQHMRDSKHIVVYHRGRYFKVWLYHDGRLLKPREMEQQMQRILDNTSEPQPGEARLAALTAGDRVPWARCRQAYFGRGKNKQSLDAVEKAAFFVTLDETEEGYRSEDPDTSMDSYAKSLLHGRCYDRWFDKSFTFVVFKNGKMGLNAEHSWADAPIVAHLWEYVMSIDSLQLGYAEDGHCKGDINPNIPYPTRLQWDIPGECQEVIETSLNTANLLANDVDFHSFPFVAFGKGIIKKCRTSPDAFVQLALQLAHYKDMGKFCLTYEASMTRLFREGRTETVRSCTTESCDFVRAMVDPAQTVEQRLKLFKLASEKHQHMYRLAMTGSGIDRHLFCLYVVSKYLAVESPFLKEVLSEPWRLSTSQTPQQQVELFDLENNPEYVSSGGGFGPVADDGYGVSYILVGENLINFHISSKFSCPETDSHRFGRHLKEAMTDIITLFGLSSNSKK
Description: CPT-1 activity was assayed in MCF-7 cells by the following published procedure: MCF-7 cells were plated in DMEM with 10% fetal bovine serum at 10^6 cells in 24-well plates in triplicate. Following overnight incubation at 37° C., the medium was removed and replaced with 700 μl of assay medium consisting of: 50 mM imidazole, 70 mM KCl, 80 mM sucrose, 1 mM EGTA, 2 mM MgCl2, 1 mM DTT, 1 mM KCN, 1 mM ATP, 0.1% fatty acid free bovine serum albumin, 70 μM palmitoyl-CoA, 0.25 μCi [methyl-^14C]L-carnitine, 40 μg digitonin with or without 20 μM malonyl-CoA. After incubation for 6 minutes at 37° C., the reaction was stopped by the addition of 500 μl of ice-cold 4 M perchloric acid. Cells were then harvested and centrifuged at 13,000×g for 5 min. The pellet was washed with 500 μl ice cold 2 mM perchloric acid and centrifuged again. The resulting pellet was resuspended in 800 μl dH2O and extracted with 150 μl of butanol. The butanol phase was counted by liquid scintillation and represents the acylcarnitine derivative.
MCF-7 cells were treated with C75 at 10 or 20 μg/mL for 1 hr before CPT-1 activity was assayed. The assay was performed with the C75 and malonyl-CoA concentrations indicated (“M” indicates malonyl-CoA at 20 uM). Malonyl-CoA treatment alone caused a 46% reduction in CPT-1 activity similar to the previous experiment (see FIG. 2; p=0.02, two-tailed t-test, Prism 3.0). The level of malonyl-CoA inhibition of the CPT-1 activity is consistent with the activity of the liver isoform of CPT-1 in MCF-7 cells. The Ki of malonyl-CoA for the liver isoform of CPT-1 is ˜7 μM while the Ki for the muscle isoform of CPT-1 is 0.07 μM. Thus, MCF-7 cells express predominantly the liver isoform of CPT-1 (consistent with the immunoblot analysis).
as §1

FAS = FAS (Homo sapiens, UniProt P49327); test: FAS activity, malonyl-CoA dependent oxidation of NADPH at OD340; format: biochemical; conditions: read-out: FAS Inhibition (IC50) (converted)
FAS, sequence (P49327 whole entry): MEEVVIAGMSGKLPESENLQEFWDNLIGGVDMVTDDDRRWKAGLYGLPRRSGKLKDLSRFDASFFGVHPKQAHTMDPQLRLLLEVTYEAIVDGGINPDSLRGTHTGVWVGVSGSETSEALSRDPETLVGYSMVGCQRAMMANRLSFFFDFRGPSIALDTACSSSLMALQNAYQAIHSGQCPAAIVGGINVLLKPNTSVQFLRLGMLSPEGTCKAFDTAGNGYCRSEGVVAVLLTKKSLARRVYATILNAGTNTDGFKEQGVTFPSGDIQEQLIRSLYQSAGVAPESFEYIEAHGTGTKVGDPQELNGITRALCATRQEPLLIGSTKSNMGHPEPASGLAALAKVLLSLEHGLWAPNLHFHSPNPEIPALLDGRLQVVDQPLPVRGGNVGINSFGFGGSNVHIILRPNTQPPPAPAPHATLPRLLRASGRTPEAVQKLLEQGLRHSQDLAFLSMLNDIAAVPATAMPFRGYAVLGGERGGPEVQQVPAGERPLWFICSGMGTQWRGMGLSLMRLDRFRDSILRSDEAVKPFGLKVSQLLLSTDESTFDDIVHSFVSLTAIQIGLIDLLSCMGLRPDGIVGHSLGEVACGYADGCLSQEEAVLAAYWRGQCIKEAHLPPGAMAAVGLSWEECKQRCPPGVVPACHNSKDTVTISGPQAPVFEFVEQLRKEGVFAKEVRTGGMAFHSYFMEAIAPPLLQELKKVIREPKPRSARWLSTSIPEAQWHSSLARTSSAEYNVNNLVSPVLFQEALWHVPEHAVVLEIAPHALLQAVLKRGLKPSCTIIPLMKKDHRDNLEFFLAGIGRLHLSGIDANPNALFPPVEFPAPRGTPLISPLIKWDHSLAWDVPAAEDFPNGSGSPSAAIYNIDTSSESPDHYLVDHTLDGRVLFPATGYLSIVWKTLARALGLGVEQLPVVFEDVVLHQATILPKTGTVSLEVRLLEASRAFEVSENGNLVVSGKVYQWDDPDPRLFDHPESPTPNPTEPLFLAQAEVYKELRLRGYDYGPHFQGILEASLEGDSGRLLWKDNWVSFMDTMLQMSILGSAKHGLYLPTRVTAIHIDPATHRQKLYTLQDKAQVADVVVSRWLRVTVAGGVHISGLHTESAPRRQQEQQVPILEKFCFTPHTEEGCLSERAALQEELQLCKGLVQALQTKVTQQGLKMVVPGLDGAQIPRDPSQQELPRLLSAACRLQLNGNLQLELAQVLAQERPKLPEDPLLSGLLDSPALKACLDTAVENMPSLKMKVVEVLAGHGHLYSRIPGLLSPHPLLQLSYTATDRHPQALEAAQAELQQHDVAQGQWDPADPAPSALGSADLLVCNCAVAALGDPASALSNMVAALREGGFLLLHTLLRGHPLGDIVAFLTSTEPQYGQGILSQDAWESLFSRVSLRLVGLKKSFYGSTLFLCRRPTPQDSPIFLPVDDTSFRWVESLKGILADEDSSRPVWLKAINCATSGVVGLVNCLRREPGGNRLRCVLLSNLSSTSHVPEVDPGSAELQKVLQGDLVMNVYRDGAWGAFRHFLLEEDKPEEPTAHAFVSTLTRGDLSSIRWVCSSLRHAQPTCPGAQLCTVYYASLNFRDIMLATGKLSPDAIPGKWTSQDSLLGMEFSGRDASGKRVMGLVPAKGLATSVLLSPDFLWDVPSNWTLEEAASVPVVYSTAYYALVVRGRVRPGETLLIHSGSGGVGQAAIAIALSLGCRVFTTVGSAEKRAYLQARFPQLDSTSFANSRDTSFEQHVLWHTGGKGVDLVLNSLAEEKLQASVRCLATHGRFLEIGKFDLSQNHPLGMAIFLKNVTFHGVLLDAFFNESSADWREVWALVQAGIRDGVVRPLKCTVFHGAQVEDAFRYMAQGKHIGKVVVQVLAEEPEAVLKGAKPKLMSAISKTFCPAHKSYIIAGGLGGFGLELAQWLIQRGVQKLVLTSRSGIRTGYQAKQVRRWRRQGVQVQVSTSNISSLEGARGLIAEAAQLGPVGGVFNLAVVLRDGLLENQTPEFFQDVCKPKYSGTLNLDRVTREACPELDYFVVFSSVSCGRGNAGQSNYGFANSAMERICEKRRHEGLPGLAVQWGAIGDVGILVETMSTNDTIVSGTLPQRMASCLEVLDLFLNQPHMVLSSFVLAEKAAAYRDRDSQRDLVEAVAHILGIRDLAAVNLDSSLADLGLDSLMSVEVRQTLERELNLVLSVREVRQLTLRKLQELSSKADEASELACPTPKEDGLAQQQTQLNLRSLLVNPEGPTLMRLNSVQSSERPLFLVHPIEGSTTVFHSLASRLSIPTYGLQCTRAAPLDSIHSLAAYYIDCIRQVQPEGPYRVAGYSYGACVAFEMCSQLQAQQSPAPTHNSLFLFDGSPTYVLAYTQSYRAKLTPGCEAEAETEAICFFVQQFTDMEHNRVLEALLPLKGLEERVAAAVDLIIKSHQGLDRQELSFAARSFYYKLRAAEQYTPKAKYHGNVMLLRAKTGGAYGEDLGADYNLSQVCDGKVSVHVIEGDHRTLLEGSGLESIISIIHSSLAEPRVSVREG
Description: as §1

MCF-7 cells [2] = conditions: literature; cited from earlier work
MCF-7 cells [3] = conditions: cited from earlier work
liver isoform of CPT-1 = target: T2, liver isoform of CPT-1 (Homo sapiens, UniProt P50416); conditions: cited from earlier work
T2 sequence (P50416 1-773): T1 sequence (P50416 1-773)

muscle isoform of CPT-1 = target: T3, muscle isoform of CPT-1 (Homo sapiens, UniProt Q92523); conditions: cited from earlier work
T3 sequence (Q92523 1-772): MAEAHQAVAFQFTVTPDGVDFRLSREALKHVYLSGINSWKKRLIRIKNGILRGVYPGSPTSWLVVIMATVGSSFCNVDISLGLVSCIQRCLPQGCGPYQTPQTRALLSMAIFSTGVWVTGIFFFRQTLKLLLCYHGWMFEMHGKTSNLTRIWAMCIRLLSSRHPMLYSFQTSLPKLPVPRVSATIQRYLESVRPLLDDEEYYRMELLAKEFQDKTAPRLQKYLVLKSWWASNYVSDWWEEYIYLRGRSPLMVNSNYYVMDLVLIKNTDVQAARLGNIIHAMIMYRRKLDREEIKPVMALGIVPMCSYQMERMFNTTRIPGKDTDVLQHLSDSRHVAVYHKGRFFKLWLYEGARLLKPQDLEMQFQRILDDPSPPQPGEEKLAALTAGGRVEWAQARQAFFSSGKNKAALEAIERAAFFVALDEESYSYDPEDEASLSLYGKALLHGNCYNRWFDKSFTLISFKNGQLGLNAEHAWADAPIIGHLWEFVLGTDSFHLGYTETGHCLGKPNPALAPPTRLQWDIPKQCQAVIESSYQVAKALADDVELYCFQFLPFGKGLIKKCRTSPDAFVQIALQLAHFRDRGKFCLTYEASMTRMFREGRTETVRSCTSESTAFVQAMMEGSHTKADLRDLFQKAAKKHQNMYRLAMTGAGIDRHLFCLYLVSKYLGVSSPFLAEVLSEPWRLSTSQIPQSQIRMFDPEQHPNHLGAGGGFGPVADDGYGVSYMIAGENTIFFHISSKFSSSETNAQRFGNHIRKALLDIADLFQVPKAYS

[4] = MCF-7, 20 μg/ml 1 hr before assay

**Q.** Which “Fatty Acid Oxidation (% Control)” value (MCF-7 cells [1]; 10 μg/mL) does the source give for `CCCCCCCC[C@]1(C)SC(=O)C=C1OC(=O)OCC` (racemic) here?
**A.** 140 % Control

**Q.** And the “CPT-1 Stimulation (% Control)” value (CPT-1; 20 μg/mL)?
**A.** 150 % Control

**Q.** What about the IC50 (FAS) of the same compound?
**A.** 14.6 µM

**Q.** For `C=CCNC(=O)[C@@H]1C(=C)C(=O)O[C@H]1CCCCCCCC` (racemic), which “Fatty Acid Oxidation (% Control)” value (MCF-7 cells [1]; 0.625 μg/mL) is on record?
**A.** 400 % Control

**Q.** What about the “CPT-1 Stimulation (% Control)” value (CPT-1; 10 μg/mL) of the same compound?
**A.** 400 % Control

**Q.** What about the IC50 (FAS) of the same compound?
**A.** 163 µM

**Q.** What does the source list for `C=C1C(=O)O[C@@H](CCCCCCCC)[C@@H]1C(=O)NCC(=O)O` (racemic)?
**A.** Fatty Acid Oxidation (% Control) (MCF-7 cells [1]; 40 μg/mL): 500 % Control; CPT-1 Stimulation (% Control) (CPT-1; 80 μg/mL): 500 % Control; IC50 (FAS): 167 µM

**Q.** What does the source list for `C=CCC1(CC=C)C(=O)S[C@@](C)(CCCCCCCC)C1=O` (racemic)?
**A.** Fatty Acid Oxidation (% Control) (MCF-7 cells [1]; 10 μg/mL): 175 % Control; CPT-1 Stimulation (% Control) (CPT-1; 20 μg/mL): 175 % Control

**Q.** Which “effect on fatty acid oxidation” value (MCF-7 cells [2]) does the source give for `C/C=C/C/C=C/CCC(=O)[C@H]1O[C@H]1C(N)=O` [Cerulenin, reference compound] here?
**A.** inhibition of fatty acid oxidation

**Q.** And the “effect on malonyl-CoA amount” value (MCF-7 cells [3])?
**A.** increases

**Q.** For `C=C1C(=O)OC(CCCCCCCCCCCC)C1C(=O)O` (centres unmarked) [Compound C12], which “CPT-1 activity, % of control” value (CPT-1; [4]) is on record?
**A.** 186 % of control

**Q.** Which “CPT-1 activity, % of control” value (CPT-1; [4]) does the source give for `C=C1C(=O)OC(CCCCCCCCCCCCCCCC)C1C(=O)O` (centres unmarked) [Compound C16] here?
**A.** 138 % of control

**Q.** Which “fatty acid oxidation, % of control” value (MCF-7 cells [1]; MCF-7, FIG. 1) does the source give for `CCOC(=O)[C@@]1(CCCCCCOc2ccc(Cl)cc2)CO1` [Etomoxir, reference compound] here?
**A.** 32 % of control

**Q.** Which “CPT-1 activity, % of control” value (CPT-1; MCF-7, 20 μM in reaction buffer) does the source give for `CC(C)(COP(=O)(O)OP(=O)(O)OC[C@H]1O[C@@H](n2cnc3c(N)ncnc32)[C@H](O)[C@@H]1OP(=O)(O)O)[C@@H](O)C(=O)NCCC(=O)NCCSC(=O)CC(=O)O` [Malonyl-CoA, reference compound] here?
**A.** 64 % of control

**Q.** What about the “reduction (inhibition) of CPT-1 activity” value (CPT-1; malonyl-CoA alone at 20 μM in the assay, MCF-7) of the same compound?
**A.** 46% and ~70%

**Q.** And the Ki (liver isoform of CPT-1)?
**A.** ~7 µM

**Q.** What about the Ki (muscle isoform of CPT-1) of the same compound?
**A.** 70 nM
